The record followed here is patent US20040192686A1, “Benzoazine mono-N-oxides and benzoazine 1,4 dioxides and compositions therefrom for the therapeutic use in cancer treatments” (Auckland Uniservices Limited, priority 2003, published 2004).

Structures are written as SMILES. pIC50: −log10 of the molar value. In brackets after ≈: the same amount, converted by molar mass. A value given as a limit tells only on which side of the number the result lay.

Series [1] deals with HT29 colon carcinoma cells. The series is described as follows: IC50 assay of potentiator alone, HT29 cells, 4 hr anoxic exposure, sulphorhodamine B staining. As to conditions: cell density by sulphorhodamine B five days after washing out. The class given is cell-based, human.
The next series relates to HT29 cells. Put plainly: TPZ potentiation test: IC50 of TPZ with and without potentiator, anoxic HT29 cells. The class given is cell-based, human. Particulars: 4 hr anoxic exposure of HT29 cells.
A short description of series [2]: Approximate solubility limit in Alpha MEM culture medium containing 5% fetal calf serum. The class given is physicochemical. Particulars: dilution from DMSO stock solutions; for solubility: plasma or biological fluid, kinetic from dmso stock.
Setting [3] is: Homo sapiens, HT-29, 4 hr exposure under anoxic conditions.
Setting [4] is: conc of potentiator 3 mM (compound 56: approximate, slight precipitation).

As to `N#CCNc1nc2ccccc2[n+]([O-])n1` [Compound 25, 2-[(1-Oxido-1,2,4-benzotriazin-3-yl)amino]acetonitrile], the pIC50 in series [1] (setting [3]) is less than 3.52. The “TPR (TPZ potentiation ratio) = TPZ IC50 without potentiator/TPZ IC50 with potentiator” value in the series on HT29 cells (conc of potentiator 0.2 mM) was 1.9. In addition, the solubility in series [2] was found to be 300 µM (≈ 60.4 µg/mL). With `CN(C)CCNc1nc2ccccc2[n+]([O-])n1` [Compound 37, N^1,N^1-Dimethyl-N^2-(1-oxido-1,2,4-benzotriazin-3-yl)-1,2-ethanediamine], the pIC50 in series [1] (setting [3]) was less than 3.00. Besides, in the series with HT29 cells (conc of potentiator 1.0 mM), the “TPR (TPZ potentiation ratio) = TPZ IC50 without potentiator/TPZ IC50 with potentiator” value came to 13.9. The same molecule registered a solubility in series [2] of 1000 µM (≈ 233 µg/mL).

`CN(C)CCCNc1nc2ccccc2[n+]([O-])n1` [Compound 44, N^1-(1-Oxido-1,2,4-benzotriazin-3-yl)-N^3,N^3-dimethyl-1,3-propan diamin]: the pIC50 in series [1] (4 hr exposure under anoxic conditions) is 3.08. For the same molecule, the “TPR (TPZ potentiation ratio) = TPZ IC50 without potentiator/TPZ IC50 with potentiator” value with HT29 cells (conc of potentiator 0.3 mM) is on record as 1.2. In series [2], this molecule yielded a Solubility limit of 3000 µM (≈ 742 µg/mL). `CCc1nc2ccccc2[n+]([O-])n1` [Compound 56, 3-Ethyl-1,2,4-benzotriazine 1-oxide]: the pIC50 in series [1] (setting [3]) was less than 2.52. Further, in the series with HT29 cells (setting [4]), the “TPR (TPZ potentiation ratio) = TPZ IC50 without potentiator/TPZ IC50 with potentiator” value is on record as 1.3. In addition, the solubility in series [2] was 3000 µM (≈ 526 µg/mL). Consider `[O-][n+]1nc(CCO)nc2ccccc21` [Compound 61, 3-(2-Hydroxyethyl)-1,2,4-benzotriazine 1-oxide], for which the pIC50 in series [1] (setting [3]) was less than 2.52. Moreover, the “TPR (TPZ potentiation ratio) = TPZ IC50 without potentiator/TPZ IC50 with potentiator” value in the series on HT29 cells (setting [4]) came to 1.2. Further, in series [2], the concentration in solution (solubility) came to 3000 µM (≈ 574 µg/mL). Molecule `[O-][n+]1nc(NCCN2CCCCC2)nc2cc(Cl)ccc21` [Compound 135, 6-Chloro-N-[2-(1-piperidinyl)ethyl]-1,2,4-benzotriazin-3-amine 1-Oxide] showed a melting point of 178 to 181 °C. The molecule `CCN(CC)CCNc1nc2cc(C)ccc2[n+]([O-])n1` [Compound 137, N^1,N^1-Diethyl-N^2-(6-methyl-1-oxido-1,2,4-benzotriazin-3-yl)-1,2-ethanediamine] came in with a melting point of 78 to 80 °C.

`Cc1ccc2c(c1)nc(NCCN1CCOCC1)n[n+]2[O-]` [Compound 138, 6-Methyl-N-[2-(4-morpholinyl)ethyl]-1,2,4-benzotriazin-3-amine 1-Oxide]: the melting point was 182 to 184 °C. The molecule `Cc1ccc2c(c1)nc(NCCCN1CCOCC1)n[n+]2[O-]` [Compound 139, 6-Methyl-N-[3-(4-morpholinyl)propyl]-1,2,4-benzotriazin-3-amine 1-Oxide] registered a melting point of 131 to 132 °C. The molecule `CCCN(CCC)CCNc1nc2cc(C)ccc2[n+]([O-])n1` [Compound 140, N^1-(6-Methyl-1-oxido-1,2,4-benzotriazin-3-yl)-N^2,N^2-dipropyl-1,2-ethanediamine] registered a melting point of 88 to 90 °C. Turning to `COc1ccc2c(c1)nc(NCCN1C(C)CCCC1C)n[n+]2[O-]` (stereo not drawn) [Compound 141, N-[2-(2,6-Dimethyl-1-piperidinyl)ethyl]-6-methoxy-1,2,4-benzotriazin-3-amine 1-oxide], the melting point lay within 170 to 171 °C. For the molecule `[O-][n+]1nc(Cl)nc2cc(C(F)(F)F)ccc21` [Compound 142, 3-Chloro-6-trifluoromethyl-1,2,4-benzotriazine 1-Oxide], the melting point was 118 to 120 °C. Turning to `CC(C)c1ccc2c(c1)nc(NCCN(C)C)n[n+]2[O-]` [Compound 147, N^1-(6-Isopropyl-1-oxido-1,2,4-benzotriazin-3-yl)-N^2,N^2-dimethyl-1,2-ethanediamine], the melting point was in the range of 87 to 89 °C.

In the case of `CCN(CC)CCNc1nc2cc(C(C)C)ccc2[n+]([O-])n1` [Compound 148, N^1-(6-Isopropyl-1-oxido-1,2,4-benzotriazin-3-yl)-N^2,N^2-diethyl-1,2-ethanediamine], the melting point is 60 to 62 °C.

`CC(C)c1ccc2c(c1)nc(NCCN1CCOCC1)n[n+]2[O-]` [Compound 149, 6-Isopropyl-N-[2-(4-morpholinyl)ethyl]-1,2,4-benzotriazin-3-amine 1-Oxide]: the melting point was 145 to 147 °C. `CC(C)c1ccc2c(c1)nc(NCCN1CCCCC1)n[n+]2[O-]` [Compound 150, 6-Isopropyl-N-[2-(1-piperidinyl)ethyl]-1,2,4-benzotriazin-3-amine 1-Oxide] returned a melting point of 124 to 127 °C. In the case of `CCCN(CCC)CCNc1nc2cc(C(C)C)ccc2[n+]([O-])n1` [Compound 151, N^1-(6-Isopropyl-1-oxido-1,2,4-benzotriazin-3-yl)-N^2,N^2-dipropyl-1,2-ethanediamine], the melting point was in the range of 79 to 81 °C.

Regarding `CC(C)(C)c1ccc2c(c1)nc(N)n[n+]2[O-]` [Compound 153, 6-tert-Butyl-1,2,4-benzotriazin-3-amine 1-Oxide], the melting point was 209 to 212 °C.

`CC(C)(C)c1ccc2c(c1)nc(Cl)n[n+]2[O-]` [Compound 154, 6-tert-Butyl-3-chloro-1,2,4-benzotriazine 1-oxide] registered a melting point of 91 to 94 °C. Still for that read-out and setting: under `CN(C)CCNc1nc2cc(C(C)(C)C)ccc2[n+]([O-])n1` [Compound 155, N^1-(6-tert-Butyl-1-oxido-1,2,4-benzotriazin-3-yl)-N^2,N^2-dimethyl-1,2-ethanediamine] stands 140 to 144 °C; under `CC(C)(C)c1ccc2c(c1)nc(NCCN1CCOCC1)n[n+]2[O-]` [Compound 157, 6-tert-Butyl-N-[2-(4-morpholinyl)ethyl]-1,2,4-benzotriazin-3-amine 1-Oxide], 132 to 134 °C; under `CC(C)(C)c1ccc2c(c1)nc(NCCN1CCCCC1)n[n+]2[O-]` [Compound 158, 6-tert-Butyl-N-[2-(1-piperidinyl)ethyl]-1,2,4-benzotriazin-3-amine 1-Oxide], 145 to 148 °C. On to `CCc1nc2cc(F)ccc2[n+]([O-])n1` [Compound 160, 3-Ethyl-6-fluoro-1,2,4-benzotriazine 1-oxide], for which the melting point lay within 122 to 124 °C. Consider `CCN(CC)CCNc1nc2cccc(C)c2[n+]([O-])n1` [Compound 162, N^1,N^1-Diethyl-N^2-(8-methyl-1-oxido-1,2,4-benzotriazin-3-yl)-1,2-ethanediamine], for which the melting point was in the range of 89 to 91 °C. The molecule `Cc1cccc2nc(NCCN3CCOCC3)n[n+]([O-])c12` [Compound 163, 8-Methyl-N-[2-(4-morpholinyl)ethyl]-1,2,4-benzotriazin-3-amine 1-Oxide] had a melting point of 168 to 170 °C. The same measure, in the same setting: with `Cc1cccc2nc(NCCN3C(C)CCCC3C)n[n+]([O-])c12` (stereo not drawn) [Compound 164, N-[2-(2,6-Dimethyl-1-piperidinyl)ethyl]-8-methyl-1,2,4-benzotriazin-3-amine 1-Oxide] the figure was 169 to 171 °C; with `CCCN(CCC)CCNc1nc2cccc(C)c2[n+]([O-])n1` [Compound 165, N^1-(8-Methyl-1-oxido-1,2,4-benzotriazin-3-yl)-N^2,N^2-dipropyl-1,2-ethanediamine], 91 to 93 °C. Turning to `CCN(CC)CCNc1nc2cc(C)c(C)cc2[n+]([O-])n1` [Compound 166, N^1-(6,7-Dimethyl-1-oxido-1,2,4-benzotriazin-3-yl)-N^2,N^2-diethyl-1,2-ethanediamine], the melting point was 130 to 132 °C. Molecule `Cc1cc2nc(NCCN3CCOCC3)n[n+]([O-])c2cc1C` [Compound 167, 6,7-Dimethyl-N-[2-(4-morpholinyl)ethyl]-1,2,4-benzotriazi n-3-amine 1-Oxide] registered a melting point of 211 to 213 °C.
